Series [1] addresses High affinity 3',5'-cyclic-AMP phosphodiesterase 7A (Homo sapiens) (UniProt Q13946). Briefly: Inhibition of human recombinant PDE7A expressed in Sf9 cells at 10 uM after 30 mins by HTRF assay.
Series [2] concerns the target Phosphodiesterase 4 (Homo sapiens) (UniProt P27815+Q08499+Q07343+Q08493). Description: Inhibition of human recombinant PDE4A1A expressed in Sf9 cells at 10 uM after 30 mins by HTRF assay. A general note: In TR-FRET formats the signal depends on donor and acceptor labels being close together.
The target of series [3] is cGMP-inhibited 3',5'-cyclic phosphodiesterase 3A (Homo sapiens) (UniProt Q14432). Description: Inhibition of human recombinant PDE3A expressed in Sf9 cells at 10 uM after 30 mins by HTRF assay.
The nature of series [4]: Selectivity index, ratio of IC50 for chloroquine-sensitive Plasmodium falciparum GHA to IC50 for bovine PDE5.
Series [5] concerns the target cAMP and cAMP-inhibited cGMP 3',5'-cyclic phosphodiesterase 10A (Homo sapiens) (UniProt Q9Y233). Description: Inhibition of human recombinant PDE10A1 expressed in Sf9 cells at 10 uM after 30 mins by HTRF assay.
A short description of series [6]: Cytotoxicity against human MRC5 SV2 cells after 72 hrs using resazurin by fluorimetry. Format: cell-based. For orientation: Resazurin is reduced to fluorescent resorufin, in cell work by metabolically active cells.
The target of series [7] is cGMP-specific 3',5'-cyclic phosphodiesterase (Bos taurus, UniProt Q28156). Briefly: Inhibition of bovine PDE5 after 24 hrs by time-resolved fluorescence resonance energy transfer assay.
The nature of series [8]: Selectivity ratio of CC50 for human MRC5 SV2 cells to IC50 for chloroquine-sensitive Plasmodium falciparum GHA strain. It is filed as ADME, cell-based. Conditions: read-out: Ratio CC50/IC50.
The subject of series [9] is Plasmodium falciparum. Description: Antiplasmodial activity against chloroquine-sensitive Plasmodium falciparum GHA infected in human erythrocytes after 72 hrs using malstat staining by spectrophotometry. It is filed as functional, organism-based.
Series [10] deals with High affinity cAMP-specific and IBMX-insensitive 3',5'-cyclic phosphodiesterase 8A (Homo sapiens) (UniProt O60658). Description: Inhibition of human recombinant PDE8A1 expressed in Sf9 cells at 10 uM after 30 mins by HTRF assay.
Chain of High affinity cAMP-specific and IBMX-insensitive 3',5'-cyclic phosphodiesterase 8A (Homo sapiens) (O60658 whole entry): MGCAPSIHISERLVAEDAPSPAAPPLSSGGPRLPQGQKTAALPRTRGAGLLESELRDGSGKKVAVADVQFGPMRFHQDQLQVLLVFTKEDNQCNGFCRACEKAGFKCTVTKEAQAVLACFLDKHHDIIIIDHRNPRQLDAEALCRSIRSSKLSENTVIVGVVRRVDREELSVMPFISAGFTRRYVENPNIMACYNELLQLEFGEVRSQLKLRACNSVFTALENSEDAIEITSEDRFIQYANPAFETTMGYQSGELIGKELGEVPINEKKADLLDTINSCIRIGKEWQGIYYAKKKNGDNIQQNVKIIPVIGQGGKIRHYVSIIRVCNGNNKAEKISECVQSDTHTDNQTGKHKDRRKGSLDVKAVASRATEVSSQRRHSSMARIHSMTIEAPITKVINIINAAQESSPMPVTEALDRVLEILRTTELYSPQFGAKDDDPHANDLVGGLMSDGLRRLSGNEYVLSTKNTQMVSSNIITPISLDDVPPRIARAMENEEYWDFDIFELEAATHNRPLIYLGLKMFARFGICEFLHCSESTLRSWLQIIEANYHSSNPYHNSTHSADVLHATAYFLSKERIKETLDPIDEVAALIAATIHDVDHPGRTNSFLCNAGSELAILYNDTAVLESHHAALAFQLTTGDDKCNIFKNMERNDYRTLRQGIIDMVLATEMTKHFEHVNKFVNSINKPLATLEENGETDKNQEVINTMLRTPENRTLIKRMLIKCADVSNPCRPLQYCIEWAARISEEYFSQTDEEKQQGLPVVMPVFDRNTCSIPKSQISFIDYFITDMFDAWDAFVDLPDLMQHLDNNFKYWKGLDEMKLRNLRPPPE
Series [11] addresses Dual 3',5'-cyclic-AMP and -GMP phosphodiesterase 11A (Homo sapiens) (UniProt Q9HCR9). Description: Inhibition of human recombinant PDE11A4 expressed in Sf9 cells at 10 uM after 30 mins by HTRF assay.
Series [12] is filed under the species Bos taurus. Briefly: Inhibition of bovine PDE6 using [3H]5GMP at 10 uM after 60 mins by scintillation counting.
The target in series [13] is cGMP-dependent 3',5'-cyclic phosphodiesterase (Homo sapiens) (UniProt O00408). Description: Inhibition of human recombinant PDE2A expressed in Sf9 cells at 10 uM after 30 mins by HTRF assay.
Chain of cGMP-dependent 3',5'-cyclic phosphodiesterase (Homo sapiens) (O00408 whole entry): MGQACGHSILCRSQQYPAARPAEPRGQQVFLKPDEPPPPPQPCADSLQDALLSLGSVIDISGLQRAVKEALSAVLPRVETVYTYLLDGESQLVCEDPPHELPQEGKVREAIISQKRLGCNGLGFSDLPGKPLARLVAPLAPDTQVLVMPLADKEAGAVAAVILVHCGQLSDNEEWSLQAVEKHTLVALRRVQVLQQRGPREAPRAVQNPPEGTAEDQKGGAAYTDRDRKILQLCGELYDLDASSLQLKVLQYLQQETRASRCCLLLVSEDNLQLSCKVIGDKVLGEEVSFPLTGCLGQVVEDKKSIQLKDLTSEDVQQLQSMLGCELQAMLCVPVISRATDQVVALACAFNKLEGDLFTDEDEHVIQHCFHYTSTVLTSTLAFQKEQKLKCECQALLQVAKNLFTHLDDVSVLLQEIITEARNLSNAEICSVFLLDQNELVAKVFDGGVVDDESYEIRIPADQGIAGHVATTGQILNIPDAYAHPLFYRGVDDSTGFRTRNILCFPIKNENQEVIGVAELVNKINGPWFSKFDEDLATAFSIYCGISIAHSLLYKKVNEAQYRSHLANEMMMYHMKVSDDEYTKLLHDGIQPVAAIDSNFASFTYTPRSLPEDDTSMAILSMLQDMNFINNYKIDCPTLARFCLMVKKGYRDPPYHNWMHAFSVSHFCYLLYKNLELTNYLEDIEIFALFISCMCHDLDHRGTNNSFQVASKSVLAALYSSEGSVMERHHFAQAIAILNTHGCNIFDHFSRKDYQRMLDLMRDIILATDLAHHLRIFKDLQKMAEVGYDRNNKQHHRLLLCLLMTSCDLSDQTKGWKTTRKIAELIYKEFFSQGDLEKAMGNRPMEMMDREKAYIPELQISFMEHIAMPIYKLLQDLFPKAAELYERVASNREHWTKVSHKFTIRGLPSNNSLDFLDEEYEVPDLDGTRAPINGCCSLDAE
Series [14] concerns the target cGMP-specific 3',5'-cyclic phosphodiesterase (Homo sapiens) (UniProt O76074). Conditions: 10 uM.
Description: Inhibition of human PDE5 using [3H]5GMP at 10 uM after 60 mins by scintillation counting
In series [15] the target is Dual specificity calcium/calmodulin-dependent 3',5'-cyclic nucleotide phosphodiesterase 1B (Homo sapiens) (UniProt Q01064). Briefly: Inhibition of human recombinant PDE1B expressed in Sf9 cells at 10 uM after 30 mins by HTRF assay.
Chain of Dual specificity calcium/calmodulin-dependent 3',5'-cyclic nucleotide phosphodiesterase 1B (Homo sapiens) (Q01064 whole entry): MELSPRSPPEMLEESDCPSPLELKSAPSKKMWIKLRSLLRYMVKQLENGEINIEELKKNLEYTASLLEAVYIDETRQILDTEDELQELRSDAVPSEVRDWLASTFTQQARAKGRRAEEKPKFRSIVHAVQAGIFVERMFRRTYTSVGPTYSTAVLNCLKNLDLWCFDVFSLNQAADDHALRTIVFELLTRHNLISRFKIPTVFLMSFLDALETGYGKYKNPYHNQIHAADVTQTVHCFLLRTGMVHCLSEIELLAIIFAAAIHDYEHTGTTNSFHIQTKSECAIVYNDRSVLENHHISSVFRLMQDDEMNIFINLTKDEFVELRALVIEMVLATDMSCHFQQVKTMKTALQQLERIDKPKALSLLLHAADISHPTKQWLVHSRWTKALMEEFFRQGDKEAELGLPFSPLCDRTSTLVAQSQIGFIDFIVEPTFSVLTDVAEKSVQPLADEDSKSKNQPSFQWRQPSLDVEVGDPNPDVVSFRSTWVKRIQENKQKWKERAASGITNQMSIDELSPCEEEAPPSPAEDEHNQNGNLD
Series [16] concerns Plasmodium falciparum. Description: Antiplasmodial activity against chloroquine-sensitive Plasmodium falciparum K1 infected in human erythrocytes after 72 hrs using malstat staining by spectrophotometry. It is filed as functional, organism-based. Particulars: K1, 72 h.
Series [17] in a line: Selectivity index, ratio of IC50 for chloroquine-sensitive Plasmodium falciparum K1 to IC50 for bovine PDE5.

Molecules are shown by their SMILES. Bounds are passed on as bounds.

Chain of cAMP and cAMP-inhibited cGMP 3',5'-cyclic phosphodiesterase 10A (Homo sapiens) (Q9Y233 whole entry): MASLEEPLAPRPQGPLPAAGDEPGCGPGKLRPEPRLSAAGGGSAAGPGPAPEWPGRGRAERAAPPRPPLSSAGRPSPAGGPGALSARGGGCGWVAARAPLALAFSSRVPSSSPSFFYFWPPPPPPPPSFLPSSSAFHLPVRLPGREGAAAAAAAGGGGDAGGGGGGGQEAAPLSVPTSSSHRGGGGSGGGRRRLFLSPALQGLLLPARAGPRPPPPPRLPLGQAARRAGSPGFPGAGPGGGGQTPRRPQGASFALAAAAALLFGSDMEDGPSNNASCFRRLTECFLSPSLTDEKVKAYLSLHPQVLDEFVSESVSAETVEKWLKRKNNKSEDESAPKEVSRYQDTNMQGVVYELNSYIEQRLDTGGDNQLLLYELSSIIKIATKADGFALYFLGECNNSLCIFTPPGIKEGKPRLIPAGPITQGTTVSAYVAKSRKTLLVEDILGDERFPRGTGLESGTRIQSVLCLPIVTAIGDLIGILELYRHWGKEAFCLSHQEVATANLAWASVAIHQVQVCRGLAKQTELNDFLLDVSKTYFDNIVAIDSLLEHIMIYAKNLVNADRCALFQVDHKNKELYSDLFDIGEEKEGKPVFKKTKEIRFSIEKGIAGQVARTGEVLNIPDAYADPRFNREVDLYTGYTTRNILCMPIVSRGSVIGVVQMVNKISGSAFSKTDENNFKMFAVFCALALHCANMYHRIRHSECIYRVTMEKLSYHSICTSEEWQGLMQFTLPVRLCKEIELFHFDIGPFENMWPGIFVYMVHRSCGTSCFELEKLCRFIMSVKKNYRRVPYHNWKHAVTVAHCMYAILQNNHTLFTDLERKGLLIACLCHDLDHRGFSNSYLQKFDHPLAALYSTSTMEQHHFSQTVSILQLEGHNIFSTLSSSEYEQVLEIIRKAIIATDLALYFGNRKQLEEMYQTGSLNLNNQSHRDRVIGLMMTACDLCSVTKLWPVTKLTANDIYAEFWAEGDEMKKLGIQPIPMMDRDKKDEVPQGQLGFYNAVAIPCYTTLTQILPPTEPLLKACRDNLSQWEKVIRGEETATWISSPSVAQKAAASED
Chain of Dual 3',5'-cyclic-AMP and -GMP phosphodiesterase 11A (Homo sapiens) (Q9HCR9 whole entry, looked up): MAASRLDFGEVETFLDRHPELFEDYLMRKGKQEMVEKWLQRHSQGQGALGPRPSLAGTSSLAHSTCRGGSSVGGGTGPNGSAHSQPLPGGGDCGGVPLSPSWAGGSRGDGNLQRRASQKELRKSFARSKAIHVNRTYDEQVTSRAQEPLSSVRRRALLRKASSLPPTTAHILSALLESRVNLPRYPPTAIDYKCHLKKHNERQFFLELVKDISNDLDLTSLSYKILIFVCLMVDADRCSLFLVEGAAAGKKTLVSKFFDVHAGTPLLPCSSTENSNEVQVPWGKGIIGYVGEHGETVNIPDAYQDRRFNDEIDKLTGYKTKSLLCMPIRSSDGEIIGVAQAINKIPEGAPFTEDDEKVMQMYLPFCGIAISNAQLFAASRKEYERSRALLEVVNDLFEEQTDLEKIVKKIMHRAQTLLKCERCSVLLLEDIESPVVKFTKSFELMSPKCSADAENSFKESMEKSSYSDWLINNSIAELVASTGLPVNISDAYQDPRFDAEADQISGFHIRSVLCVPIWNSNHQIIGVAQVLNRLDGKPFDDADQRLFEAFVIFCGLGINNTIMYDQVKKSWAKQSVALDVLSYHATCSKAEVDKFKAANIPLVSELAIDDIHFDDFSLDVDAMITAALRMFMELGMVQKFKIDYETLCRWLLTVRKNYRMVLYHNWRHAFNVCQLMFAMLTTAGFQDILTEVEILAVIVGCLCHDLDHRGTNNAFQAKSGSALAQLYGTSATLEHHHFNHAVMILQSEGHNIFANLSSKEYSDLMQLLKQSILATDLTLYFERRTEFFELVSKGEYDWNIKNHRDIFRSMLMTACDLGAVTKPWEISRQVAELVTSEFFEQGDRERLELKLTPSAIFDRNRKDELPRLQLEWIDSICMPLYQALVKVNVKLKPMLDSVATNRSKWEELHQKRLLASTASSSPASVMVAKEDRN
Chain of High affinity 3',5'-cyclic-AMP phosphodiesterase 7A (Homo sapiens) (Q13946 whole entry): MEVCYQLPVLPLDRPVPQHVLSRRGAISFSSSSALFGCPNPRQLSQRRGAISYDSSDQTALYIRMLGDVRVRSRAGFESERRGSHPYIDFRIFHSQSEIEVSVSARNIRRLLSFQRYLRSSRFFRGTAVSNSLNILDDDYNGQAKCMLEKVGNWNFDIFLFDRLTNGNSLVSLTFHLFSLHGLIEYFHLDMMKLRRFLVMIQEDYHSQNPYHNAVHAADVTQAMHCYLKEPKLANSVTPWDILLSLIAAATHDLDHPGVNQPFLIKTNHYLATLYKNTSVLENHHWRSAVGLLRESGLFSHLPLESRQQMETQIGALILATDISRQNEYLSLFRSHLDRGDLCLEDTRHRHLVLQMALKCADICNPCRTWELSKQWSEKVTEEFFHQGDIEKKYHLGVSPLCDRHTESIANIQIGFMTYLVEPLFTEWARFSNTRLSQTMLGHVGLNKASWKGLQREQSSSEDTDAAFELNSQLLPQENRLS

Regarding `COc1ccc([C@@H]2c3[nH]c4ccccc4c3C[C@@H]3C(=O)N([C@@H]4CCN(Cc5ccccc5)C4)CC(=O)N23)cc1OC`, the inhibition in series [1] worked out at 0%; in [2] it was 1%; in series [3], 1%; in [5], 0%; in [10] it was 3%; in [11], 30%. For the same compound, the inhibition in [12] was 18%; in series [13], 0%; in series [14] it was 48%; in series [15] it was 0%. In addition, the Ratio IC50 in series [4] was determined as 12.4. This compound yielded a CC50 at 72 h in series [6] of 32 µM. The results for the IC50 in series [7] and in series [9] were 5.2 µM and 420 nM, respectively. Moreover, the selectivity ratio in series [8] is 76.

With `COc1ccc([C@@H]2c3[nH]c4ccccc4c3C[C@@H]3C(=O)N([C@@H]4CCN(Cc5ccc6c(c5)OCO6)C4)CC(=O)N23)cc1OC`, the IC50 in series [16] is 950 nM; in series [7], > 10 µM. This compound yielded a CC50 at 72 h in [6] of 25 µM. Besides, in series [8], the selectivity ratio came out at 25. The Ratio IC50 in series [17] was > 10.

For `COc1ccc([C@@H]2c3[nH]c4ccccc4c3C[C@@H]3C(=O)N([C@@H]4CCN(CCNC(=O)OC(C)(C)C)C4)CC(=O)N23)cc1OC`, the half-inhibitory concentration (IC50) was 740 nM in series [16] and > 10 µM in [7]. In addition, it took 10 µM to reach half-maximal cytotoxicity in series [6] (CC50 at 72 h). In addition, the selectivity ratio in [8] stood at 10. Also, the Ratio IC50 in [17] was > 13.

For the compound `COc1ccc([C@@H]2c3[nH]c4ccccc4c3C[C@@H]3C(=O)N([C@@H]4CCN(Cc5nccn5C)C4)CC(=O)N23)cc1OC`, the 50% inhibitory concentration (IC50) amounted to 1600 nM in [16] and 5.6 µM in series [7]. The same compound came in with a cytotoxic concentration (CC50) at 72 h in series [6] of 37 µM. Also, the selectivity ratio in series [8] amounted to 37. Further, the Ratio IC50 in [17] was found to be 3.

For orientation: inhibition means the drop in the measured response relative to a control, in per cent. What is called CC50 is the concentration at which the toxic effect on the cells reaches its halfway point. The IC50 is the point on the concentration scale where inhibition reaches its midpoint. Read a low IC50 as inhibition by little substance.
